From patent US11229651B2, “Prophylaxis and treatment of a neurodegenerative disease not based on a protein-folding disorder” (Eberhard Karls Universität Tübingen Medizinische Fakultät, priority 2013, dated 2022)

Columns and labels:
[1] = test system: photoreceptors of cultivated retinas from rats mutated in the rhodopsin (P23H); assay: TUNEL assay on retinal organ cultures from P23H rhodopsin transgenic rats; type: cell-based, rat; details: for amount of dying photoreceptors (percentage of TUNEL positive cells in the outer nuclear layer (ONL) vs total nuclei in the ONL): P23H mutant retinal cultures, PN9 + 6 days in vitro, compared with untreated and DMSO treated controls, FIG. 3A; for survival of photoreceptors in radial sections: P23H retinal organ cultures, compared with DMSO control, FIG. 2
Description: Homozygous P23H rhodopsin transgenic rats (produced by Chrysalis DNX Transgenic Sciences, Princeton, N.J., United States of America) of the line Tg (P23H) 1 Lay (P23H-1) were kindly provided by Dr. M. M. LaVail (University of California, San Francisco, Calif., United States of America) and bred in the Animal Housing Facility in the Center for Ophthalmology in Tübingen. Heterozygous P23H rats were employed, obtained by crossing with wt, CD rats (CDH IGS rat; Charles River, Germany) to reflect the genetic background of autosomal-dominant retinitis pigmentosa (ADRP).
Retinas of postnatal day 9 (PN9) of P23H transgenic rats were cultivated for six days (DIVE) that correspond to PN15, i.e. the peak of degeneration in in vivo aged-matched mutants. The day of birth was denoted as P0. For radial sections, cultures were immersed in 4% paraformaldehyde in 0.1 M phosphate buffer (PB; pH 7.4) for 30 minutes at 4° C. and embedded in cryomatrix (Tissue-Tek, Leica, Bensheim, Germany). The radial sections (15 μm thick) were processed immediately or stored at […]
The retinas were isolated from nine-days-old P23H rats with the retinal pigment epithelium (RPE) attached essentially as described previously in Caffe et al. (2001), “Mouse retina explants after long-term culture in serum free medium”, J. Chem. Neuroanat. 22(4): 263-73, and Arango-Gonzalez et al. (2010), “In vivo and in vitro devel-opment of S- and M-cones in rat retina”, Invest. Ophthalmol. Vis. Sci. 2010 October; 51(10):5320-7. Briefly, the eyes of decapitated rats were enucleated in aseptic environment and pretreated with 12% proteinase K (ICN Biomedicals Inc., OH, United States of America) for 15 minutes at 37° C. in R16 serum-free culture medium (Invitrogen Life Technologies, Paisley, United Kingdom). The enzymatic digestion was stopped by the addition of 20% fetal bovine serum. Retina and RPE were dissected and four radial sections were made to flatten the tissue. The tissue was transferred to a 0.5 μm polycar-bonate membrane (Corning Life Sciences, Lowell, Mass., United States of America), with the RPE facing the membrane. The inserts were placed into six well culture plates and incubated with R16 nutrient medium at 36.5° C. The retina was left in R16 culture medium without a treatment for one day to allow an adaptation to the culture conditions. The medium was changed at DIV1, DIV3, and DIV5, and the new medium either contained ML240 (1 μM or […]) or EerII (1 μM or 20 μM). Both components were pre-diluted in dimethyl sulfoxide (DMSO, Sigma). For controls, the same amount of DMSO (0.05% or 1% respectively) was diluted in culture medium. The cultures were fixed at DIVE and analyzed as radial sections. […]

[2] = test system: photoreceptors of cultivated retinas from wild-type rats; assay: TUNEL assay on retinal organ cultures from wild-type rats; type: cell-based, rat; details: for reduction of percentage of TUNEL positive cells in the ONL: WT cultivated retinas, compared with controls, FIG. 3B, **p<0.01, ***p<0.001; for survival of photoreceptors in radial sections: wild-type retinal organ cultures, compared with DMSO control, FIG. 2

| Compound | amount of dying photoreceptors (percentage of TUNEL positive cells in the outer nuclear layer (ONL) vs total nuclei in the ONL) [1] | survival of photoreceptors in radial sections [1] | reduction of percentage of TUNEL positive cells in the ONL [2] | survival of photoreceptors in radial sections [2] |
| --- | --- | --- | --- | --- |
| CC1(C)C(N(O)C(=O)Nc2ccc(Cl)cc2)N(c2ccc(Cl)cc2)C(=O)N1CC(=O)N/N=C/C=C/c1ccc([N+](=O)[O-])o1 (centres unmarked) [EerI, Eeyarestatin I] | significantly reduce | significant increase of the survival | not significantly | significant increase of the survival |
| COc1cccc2c(NCc3ccccc3)nc(-n3c(N)nc4ccccc43)nc12 [ML240] | significantly reduce | significant increase of the survival | significantly | significant increase of the survival |
